# Test results from patent publication US7888386B2, “3-(phenoxyphenylmethyl)pyrrolidine compounds” (Theravance, Inc., priority 2008, dated 2011).
# Read-outs that look alike come from different tables or passages of the source.
# Experiments:
# hSERT = target: T1, hSERT (Homo sapiens, UniProt P31645); assay: hSERT binding assay (Assay 1)
# T1 construct: expressed in transfected cells; host or cells: HEK-293 derived cell line, stably transfected; membrane preparation
# Method: (§1) Membrane radioligand binding assays were used to measure competitive inhibition of labeled ligand (^3H-citalopram or ^3H-nisoxetine or ^3H-WIN35428) binding to membranes prepared from cells expressing the respective human recombinant transporter (hSERT or hNET or hDAT) in order to determine the pKi values of test compounds at the transporters.
# (§2) Recombinant human embryonic kidney (HEK-293) derived cell lines stably transfected with hSERT or hNET, respectively, were grown in DMEM medium supplemented with 10% dialyzed FBS (for hSERT) or FBS (for hNET), 100 μg/ml penicillin, 100 μg/ml streptomycin, 2 mM L-glutamine and 250 μg/ml of the aminoglycoside antibiotic G418, in a 5% CO2 humidified incubator at 37° C. When cultures reached 80% confluence, the cells were washed thoroughly in PBS (without Ca^2+ and Mg^2+) and lifted with 5 mM EDTA in PBS. Cells were pelleted by centrifugation, resuspended in lysis buffer (10 mM Tris-HCl, pH 7.5 containing 1 mM EDTA), homogenized, pelleted by centrifugation, then resuspended in 50 mM Tris-HCl, pH 7.5 and 10% sucrose at 4° C. Protein concentration of the membrane suspension was determined using a Bio-Rad Bradford Protein Assay kit. Membranes were snap frozen and stored at −80° C. Chinese hamster ovary membranes expressing hDAT (CHO-DAT) were purchased from PerkinElmer and stored at −80° C.
# (§3) Stock solutions (10 mM in DMSO) of test compound were prepared and serial dilutions made using Dilution Buffer (50 mM Tris-HCl, 120 mM NaCl, 5 mM KCl, pH 7.4, 0.1% BSA, 400 μM ascorbic acid).
# (§4) Following a 60 minute incubation at 22° C. (or a period sufficient to reach equilibrium), the membranes were harvested by rapid filtration over a 96-well UniFilter GF/B plate, pretreated with 0.3% polyethyleneimine, and washed 6 times with 300 μl wash buffer (50 mM Tris-HCl, 0.9% NaCl, pH 7.5 at 4° C.). Plates were dried overnight at room temperature, ˜45 μl of MicroScint™-20 (Perkin Elmer) added and bound radioactivity quantitated via liquid scintillation spectroscopy. Competitive inhibition curves and saturation isotherms were analyzed using GraphPad Prism Software package (GraphPad Software, Inc., San Diego, Calif.). IC50 values were generated from concentration response curves using the Sigmoidal Dose Response (variable slope) algorithm in Prism GraphPad.
# hNET = target: T2, hNET (Homo sapiens, UniProt P23975); assay: hNET binding assay (Assay 1); conditions: read-out: NET pKi (converted)
# T2 construct: expressed in transfected cells; host or cells: HEK-293 derived cell line, stably transfected; membrane preparation
# T2 sequence (P23975 whole entry): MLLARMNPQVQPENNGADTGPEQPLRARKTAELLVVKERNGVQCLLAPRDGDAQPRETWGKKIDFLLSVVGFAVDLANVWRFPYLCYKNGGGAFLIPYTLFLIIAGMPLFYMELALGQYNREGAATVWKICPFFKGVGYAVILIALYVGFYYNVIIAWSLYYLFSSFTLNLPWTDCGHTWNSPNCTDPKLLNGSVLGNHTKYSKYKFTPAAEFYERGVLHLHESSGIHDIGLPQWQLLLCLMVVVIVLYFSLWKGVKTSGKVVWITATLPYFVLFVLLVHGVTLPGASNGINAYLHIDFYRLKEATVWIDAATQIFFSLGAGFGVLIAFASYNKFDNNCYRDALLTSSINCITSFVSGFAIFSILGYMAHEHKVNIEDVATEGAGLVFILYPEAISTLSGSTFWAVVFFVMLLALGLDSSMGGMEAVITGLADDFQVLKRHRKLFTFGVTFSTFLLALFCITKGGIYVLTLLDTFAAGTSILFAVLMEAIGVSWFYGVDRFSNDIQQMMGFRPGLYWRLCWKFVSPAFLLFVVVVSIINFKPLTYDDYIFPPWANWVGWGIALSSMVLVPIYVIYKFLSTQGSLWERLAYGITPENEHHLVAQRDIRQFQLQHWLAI
# Method: as §1, §2, §3, §4
# [1] = ratio of SERT Ki to NET Ki (binding)
# [2] = ratio of binding Ki at SERT to Ki at NET, the tables list only compounds with a ratio in the range 0.1-100
# [3] = hNET binding, the tables list only compounds with NET pKi≧8
# [4] = ratio of binding Ki at hSERT to Ki at hNET, rounded off to the nearest tenth
# [5] = membranes of HEK-293 cells expressing hNET, 1.0 nM 3H-nisoxetine
# T1 sequence (P31645 whole entry): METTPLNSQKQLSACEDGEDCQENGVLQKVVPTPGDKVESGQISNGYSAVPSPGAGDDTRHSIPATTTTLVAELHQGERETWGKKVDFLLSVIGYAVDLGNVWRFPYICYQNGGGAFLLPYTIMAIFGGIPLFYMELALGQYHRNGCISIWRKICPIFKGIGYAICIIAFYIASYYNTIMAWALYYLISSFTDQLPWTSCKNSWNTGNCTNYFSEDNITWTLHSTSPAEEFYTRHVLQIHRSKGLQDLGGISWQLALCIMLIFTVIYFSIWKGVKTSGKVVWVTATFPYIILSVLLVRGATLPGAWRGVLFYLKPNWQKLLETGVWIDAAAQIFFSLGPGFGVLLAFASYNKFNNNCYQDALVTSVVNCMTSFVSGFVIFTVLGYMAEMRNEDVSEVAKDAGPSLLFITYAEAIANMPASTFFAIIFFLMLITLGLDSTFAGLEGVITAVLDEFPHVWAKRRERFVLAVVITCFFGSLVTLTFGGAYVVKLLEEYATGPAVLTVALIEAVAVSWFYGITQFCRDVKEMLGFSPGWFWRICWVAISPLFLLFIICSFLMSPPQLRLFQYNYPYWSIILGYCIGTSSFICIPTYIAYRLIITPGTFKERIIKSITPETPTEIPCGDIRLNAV
Structure (SMILES),SERT Ki/NET Ki (hSERT; [1]),Ki (hNET; hNET binding) [nM],also measured
Cc1ccc(F)c(O[C@H](c2ccccc2)[C@@H]2CCNC2)c1Cl [40-29],0.4,0.2,–
Cc1ccc(F)c(O[C@@H](c2ccccc2)[C@@H]2CCNC2)c1Cl [40-30],0.1,5.01,–
COc1ccc(F)c(OC(c2ccccc2)C2CCNC2)c1Cl (stereo not shown) [40-35],0.3,0.398,–
Fc1cc(F)cc([C@H](Oc2c(F)ccc(F)c2F)[C@H]2CCNC2)c1 [41-1],100,0.251,–
Fc1cc(F)cc(C(Oc2c(F)ccc(F)c2F)C2CCNC2)c1 (stereo not shown) [41-2],1,2.51,–
COc1ccc(F)c(F)c1OC(c1cc(F)cc(F)c1)C1CCNC1 (stereo not shown) [41-4],1,1,–
Fc1cc(F)cc(C(Oc2c(F)ccc(Cl)c2F)C2CCNC2)c1 (stereo not shown) [41-5],50,0.2,–
Fc1cc(F)cc(C(Oc2c(F)ccc(Cl)c2F)C2CCNC2)c1 (stereo not shown) [41-6],1,0.501,–
Cc1ccc(F)c(OC(c2cc(F)cc(F)c2)C2CCNC2)c1F (stereo not shown) [41-7],1.3,1,–
Cc1ccc(Cl)c(OC(c2cc(F)cc(F)c2)C2CCNC2)c1F (stereo not shown) [41-8],7.9,0.398,–
Cc1ccc(Cl)c(O[C@H](c2cc(F)cc(F)c2)[C@@H]2CCNC2)c1F [41-9],0.8,0.794,–
Fc1cc(F)cc(C(Oc2c(Cl)ccc(Cl)c2Cl)C2CCNC2)c1 (stereo not shown) [41-11],0.8,0.398,–
Cc1ccc(Cl)c(OC(c2cccc(C#N)c2)C2CCNC2)c1Cl (stereo not shown) [41-14],7.9,0.631,–
Cc1ccc(Cl)c(OC(c2ccc(C#N)cc2)C2CCNC2)c1Cl (stereo not shown) [41-15],0.6,1,–
Cc1ccc(Cl)c(O[C@H](c2cccc(CO)c2)[C@H]2CCNC2)c1Cl [41-17],5,1,–
Cc1ccc(Cl)c(OC(c2ccccc2Cl)C2CCNC2)c1Cl (stereo not shown) [41-18],0.4,1.58,–
Cc1ccc(Cl)c(OC(c2ccc(Cl)cc2)C2CCNC2)c1Cl (stereo not shown) [41-19],0.6,1.26,–
Cc1ccc(Cl)c(OC(c2cc(F)cc(Cl)c2)C2CCNC2)c1Cl (stereo not shown) [41-24],1,1,–
Cc1ccc(Cl)c(O[C@@H](c2cc(F)cc(F)c2)[C@H]2CCNC2)c1Cl [41-27],0.8,0.794,–
Cc1ccc(F)c(OC(c2cc(F)cc(F)c2)C2CCNC2)c1Cl (stereo not shown) [41-28],6.3,0.316,–
Cc1ccc(F)c(OC(c2cc(F)cc(F)c2)C2CCNC2)c1Cl (stereo not shown) [41-29],0.5,0.251,–

Structure (SMILES),SERT Ki/NET Ki (hSERT; [1]),Ki (hNET; hNET binding) [nM],also measured
Fc1cc(F)cc(C(Oc2c(F)ccc(F)c2Cl)C2CCNC2)c1 (stereo not shown) [41-30],32,0.2,–
Fc1cc(F)cc([C@@H](Oc2c(F)ccc(F)c2Cl)[C@@H]2CCNC2)c1 [41-31],0.6,0.251,–
N#Cc1cccc([C@H](Oc2c(F)ccc(F)c2Cl)[C@H]2CCNC2)c1 [41-32],40,0.398,–
N#Cc1cccc([C@@H](Oc2c(F)ccc(F)c2Cl)[C@@H]2CCNC2)c1 [41-33],0.4,0.794,–
N#Cc1cccc([C@H](Oc2c(F)ccc(F)c2Cl)[C@@H]2CCNC2)c1 [41-34],0.8,7.94,–
NC(=O)c1cccc(C(Oc2c(F)ccc(F)c2Cl)C2CCNC2)c1 (stereo not shown) [41-36],7.9,1,–
Fc1cc(F)c(OC(c2ccccc2)C2CCNC2)cc1F (stereo not shown) [42-1],1.6,7.94,–
Cc1cc(Cl)c(OC(c2ccccc2)C2CCNC2)cc1F (stereo not shown) [42-4],0.5,2.51,–
COc1cc(Cl)c(F)cc1OC(c1ccccc1)C1CCNC1 (stereo not shown) [42-8],0.4,1.26,–
Fc1cc(F)cc(C(Oc2cc(F)c(F)cc2F)C2CCNC2)c1 (stereo not shown) [43-1],32,2,–
COc1cc(Cl)c(F)cc1OC(c1cc(F)cc(F)c1)C1CCNC1 (stereo not shown) [43-2],1.3,2,–
CCc1cc(F)cc(F)c1O[C@@H](c1ccccc1)[C@H]1CCNC1 [44-4],–,–,SERT Ki/NET Ki (hSERT; [2]): 0.3; Ki (hNET; [3]): 0.631 nM
CC(=O)c1cc(F)cc(F)c1O[C@@H](c1ccccc1)[C@H]1CCNC1 [44-6],–,–,SERT Ki/NET Ki (hSERT; [2]): 13; Ki (hNET; [3]): 1.58 nM
Fc1cc(Cl)cc(F)c1OC(c1ccccc1)C1CCNC1 (stereo not shown) [44-8],–,–,SERT Ki/NET Ki (hSERT; [2]): 0.1; Ki (hNET; [3]): 3.98 nM
Fc1cc(Cl)cc(F)c1O[C@@H](c1ccccc1)[C@H]1CCNC1 [44-9],–,–,SERT Ki/NET Ki (hSERT; [2]): 0.1; Ki (hNET; [3]): 2.51 nM
Fc1cc(Cl)c(O[C@@H](c2ccccc2)[C@H]2CCNC2)c(Cl)c1 [44-21],–,–,SERT Ki/NET Ki (hSERT; [2]): 0.5; Ki (hNET; [3]): 6.31 nM
COC(=O)c1cc(F)cc(F)c1O[C@@H](c1ccccc1)[C@H]1CCNC1 [44-28],–,–,SERT Ki/NET Ki (hSERT; [2]): 2.5; Ki (hNET; [3]): 1 nM
Fc1cc(F)cc([C@H](Oc2c(F)cc(F)cc2F)[C@H]2CCNC2)c1 [45-1],–,–,SERT Ki/NET Ki (hSERT; [2]): 7.9; Ki (hNET; [3]): 3.98 nM
NC(=O)c1cccc(C(Oc2c(F)cc(F)cc2F)C2CCNC2)c1 (stereo not shown) [45-5],–,–,SERT Ki/NET Ki (hSERT; [2]): 3.2; Ki (hNET; [3]): 7.94 nM
Fc1cc(F)c(Cl)c(OC(c2ccccc2)C2CCNC2)c1F (stereo not shown) [47-6],–,–,SERT Ki/NET Ki (hSERT; [2]): 6.3; Ki (hNET; [3]): 0.398 nM
Fc1cc(F)c(Cl)c(OC(c2ccccc2)C2CCNC2)c1F (stereo not shown) [47-7],–,–,SERT Ki/NET Ki (hSERT; [2]): 0.4; Ki (hNET; [3]): 0.501 nM

Structure (SMILES),SERT Ki/NET Ki (hSERT; [1]),Ki (hNET; hNET binding) [nM],also measured
Fc1cc(F)cc(C(Oc2c(Cl)c(F)cc(F)c2Cl)C2CCNC2)c1 (stereo not shown) [48-1],–,–,SERT Ki/NET Ki (hSERT; [2]): 2; Ki (hNET; [3]): 0.501 nM
Fc1cc(F)cc([C@H](Oc2c(Cl)c(F)cc(F)c2Cl)[C@H]2CCNC2)c1 [48-2],–,–,SERT Ki/NET Ki (hSERT; [2]): 10; Ki (hNET; [3]): 0.398 nM
Fc1cc(F)cc([C@@H](Oc2c(Cl)c(F)cc(F)c2Cl)[C@@H]2CCNC2)c1 [48-3],–,–,SERT Ki/NET Ki (hSERT; [2]): 2; Ki (hNET; [3]): 0.251 nM
Fc1cc(F)c(Cl)c(OC(c2ccccc2Cl)C2CCNC2)c1Cl (stereo not shown) [48-4],–,–,SERT Ki/NET Ki (hSERT; [2]): 0.2; Ki (hNET; [3]): 7.94 nM
Fc1c(F)c(F)c(O[C@@H](c2ccccc2)[C@H]2CCNC2)c(F)c1F [49-1],–,–,SERT Ki/NET Ki (hSERT; [2]): 2.5; Ki (hNET; [3]): 3.98 nM
COC(=O)c1c(F)c(F)c(F)c(F)c1OC(c1ccccc1)C1CCNC1 (stereo not shown) [49-8],–,–,SERT Ki/NET Ki (hSERT; [2]): 0.4; Ki (hNET; [3]): 3.16 nM
Brc1ccccc1OC(c1ccccc1)C1CCNC1 (stereo not shown) [Compound 19-7],–,–,SERT Ki/NET Ki (hSERT; [4]): 1; Ki (hNET; [5]): 1 nM
Ic1ccccc1OC(c1ccccc1)C1CCNC1 (stereo not shown) [Compound 19-8],–,–,SERT Ki/NET Ki (hSERT; [4]): 0.6; Ki (hNET; [5]): 1 nM
CCc1ccccc1OC(c1ccccc1)C1CCNC1 (stereo not shown) [Compound 19-11],–,–,SERT Ki/NET Ki (hSERT; [4]): 4; Ki (hNET; [5]): 3.16 nM
CC(C)c1ccccc1OC(c1ccccc1)C1CCNC1 (stereo not shown) [Compound 19-12],–,–,SERT Ki/NET Ki (hSERT; [4]): 16; Ki (hNET; [5]): 2 nM
FC(F)(F)c1ccccc1OC(c1ccccc1)C1CCNC1 (stereo not shown) [Compound 19-13],–,–,SERT Ki/NET Ki (hSERT; [4]): 7.9; Ki (hNET; [5]): 2.51 nM
CC(C)Oc1ccccc1OC(c1ccccc1)C1CCNC1 (stereo not shown) [Compound 19-17],–,–,SERT Ki/NET Ki (hSERT; [4]): 40; Ki (hNET; [5]): 3.16 nM
FC(F)(F)Oc1ccccc1OC(c1ccccc1)C1CCNC1 (stereo not shown) [Compound 19-18],–,–,SERT Ki/NET Ki (hSERT; [4]): 20; Ki (hNET; [5]): 1.26 nM
c1ccc(-c2ccccc2OC(c2ccccc2)C2CCNC2)cc1 (stereo not shown) [Compound 19-19],–,–,SERT Ki/NET Ki (hSERT; [4]): 32; Ki (hNET; [5]): 2 nM
c1ccc(Cc2ccccc2OC(c2ccccc2)C2CCNC2)cc1 (stereo not shown) [Compound 19-20],–,–,SERT Ki/NET Ki (hSERT; [4]): 1.6; Ki (hNET; [5]): 7.94 nM
c1ccc(Cc2ccccc2OC(c2ccccc2)C2CCNC2)cc1 (stereo not shown) [Compound 19-21],–,–,SERT Ki/NET Ki (hSERT; [4]): 5; Ki (hNET; [5]): 5.01 nM
CCC(=O)c1ccccc1OC(c1ccccc1)C1CCNC1 (stereo not shown) [Compound 19-26],–,–,SERT Ki/NET Ki (hSERT; [4]): 50; Ki (hNET; [5]): 3.98 nM
CCC(=O)c1ccccc1OC(c1ccccc1)C1CCNC1 (stereo not shown) [Compound 19-27],–,–,SERT Ki/NET Ki (hSERT; [4]): 100; Ki (hNET; [5]): 2 nM
CSc1ccccc1OC(c1ccccc1)C1CCNC1 (stereo not shown) [Compound 19-29],–,–,SERT Ki/NET Ki (hSERT; [4]): 25; Ki (hNET; [5]): 0.631 nM
CSc1ccccc1OC(c1ccccc1)C1CCNC1 (stereo not shown) [Compound 19-30],–,–,SERT Ki/NET Ki (hSERT; [4]): 63; Ki (hNET; [5]): 0.398 nM
